Source: the supplement of paper PMC10307832

Tests used:
Test in all cases: relative viability (nuclei count vs DMSO), 5 days (fraction); higher = more cells survive
Bemcentinib + Pemetrexed = compound: Nc1nc(Nc2ccc3c(c2)CC[C@@H](N2CCCC2)CC3)nn1-c1cc2c(nn1)-c1ccccc1CCC2 [Bemcentinib] + Nc1nc2[nH]cc(CCc3ccc(C(=O)N[C@@H](CCC(=O)O)C(=O)O)cc3)c2c(=O)[nH]1 [Pemetrexed] (partner 0.2 µM)
In short: (§1)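 Lung cancer cell lines in 1536-well plates were dosed by pin tool the day after seeding, either with one drug alone or with a fixed anchor-drug dose plus five library-drug doses (not always all listed) in √10 steps. After 5 days, cells were fixed and their nuclei stained in one step (final 0.05% Triton X-100, 1% formaldehyde, 1 ug/ml Hoechst), then counted on 4× images. Relative viability is the nuclei count in treated wells divided by that in vehicle wells. Values are medians of duplicate plates.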

Bemcentinib + AZD7762 = compound: Nc1nc(Nc2ccc3c(c2)CC[C@@H](N2CCCC2)CC3)nn1-c1cc2c(nn1)-c1ccccc1CCC2 [Bemcentinib] + NC(=O)Nc1cc(-c2cccc(F)c2)sc1C(=O)N[C@H]1CCCNC1 [AZD7762] (partner 0.2 µM)
In short: as §1

Bemcentinib + OSI-027 = compound: Nc1nc(Nc2ccc3c(c2)CC[C@@H](N2CCCC2)CC3)nn1-c1cc2c(nn1)-c1ccccc1CCC2 [Bemcentinib] + COc1cccc2cc(-c3nc([C@H]4CC[C@H](C(=O)O)CC4)n4ncnc(N)c34)[nH]c12 [OSI-027] (partner 0.5 µM)
In short: as §1

Axitinib + Linsitinib = compound: CNC(=O)c1ccccc1Sc1ccc2c(/C=C/c3ccccn3)n[nH]c2c1 [Axitinib] + C[C@]1(O)C[C@@H](c2nc(-c3ccc4ccc(-c5ccccc5)nc4c3)c3c(N)nccn32)C1 [Linsitinib] (partner 1 µM)
In short: as §1

| Cell Line | relative viability (Bemcentinib + Pemetrexed; first compound 0.04 µM) | relative viability (Bemcentinib + Pemetrexed; first compound 0.1265 µM) | relative viability (Bemcentinib + Pemetrexed; first compound 0.4 µM) | relative viability (Bemcentinib + Pemetrexed; first compound 1.265 µM) | relative viability (Bemcentinib + Pemetrexed; first compound 4 µM) | relative viability (Bemcentinib + AZD7762; first compound 0.04 µM) | relative viability (Bemcentinib + AZD7762; first compound 0.1265 µM) | relative viability (Bemcentinib + AZD7762; first compound 0.4 µM) | relative viability (Bemcentinib + AZD7762; first compound 1.265 µM) | relative viability (Bemcentinib + AZD7762; first compound 4 µM) | relative viability (Bemcentinib + OSI-027; first compound 0.04 µM) | relative viability (Bemcentinib + OSI-027; first compound 0.1265 µM) | relative viability (Bemcentinib + OSI-027; first compound 0.4 µM) | relative viability (Bemcentinib + OSI-027; first compound 1.265 µM) | relative viability (Bemcentinib + OSI-027; first compound 4 µM) | relative viability (Axitinib + Linsitinib; first compound 0.005 µM) | relative viability (Axitinib + Linsitinib; first compound 0.01581 µM) | relative viability (Axitinib + Linsitinib; first compound 0.05 µM) | relative viability (Axitinib + Linsitinib; first compound 0.1581 µM) | relative viability (Axitinib + Linsitinib; first compound 0.5 µM) |
| --- | --- | --- | --- | --- | --- | --- | --- | --- | --- | --- | --- | --- | --- | --- | --- | --- | --- | --- | --- | --- |
| HCC-15 | 0.231 | 0.219 | 0.226 | 0.218 | 0.221 | 1.22 | 1.4 | 1.19 | 1.26 | 1.38 | 0.716 | 0.794 | 0.74 | 0.726 | 0.815 | 0.959 | 0.879 | 0.88 | 0.838 | 0.895 |
| NCI-H1975 | 0.307 | 0.362 | 0.301 | 0.283 | 0.299 | 0.691 | 0.702 | 0.67 | 0.687 | 0.656 | 0.719 | 0.82 | 0.737 | 0.795 | 0.772 | 1.17 | 1.1 | 1.09 | 0.988 | 1.18 |
| NCI-H1651 | 0.548 | 0.592 | 0.646 | 0.475 | 0.614 | 0.506 | 0.504 | 0.491 | 0.536 | 0.455 | 0.771 | 0.811 | 0.738 | 0.741 | 0.74 | 1.08 | 0.895 | 0.914 | 0.964 | 1.23 |
| NCI-H23 | 0.626 | 0.724 | 0.941 | 0.763 | 0.738 | 0.282 | 0.245 | 0.208 | 0.201 | 0.212 | 0.581 | 0.612 | 0.713 | 0.447 | 0.684 | 0.66 | 0.618 | 0.653 | 0.587 | 0.721 |
| PC-14 | 0.131 | 0.13 | 0.139 | 0.141 | 0.124 | 0.262 | 0.419 | 0.328 | 0.334 | 0.292 | 0.84 | 1.08 | 0.938 | 0.953 | 0.81 | 1.07 | 0.895 | 1.03 | 0.945 | 0.944 |
| H3255 | 0.533 | 0.616 | 0.585 | 0.624 | 0.517 | 0.814 | 0.887 | 0.874 | 0.773 | 0.839 | 0.597 | 0.66 | 0.558 | 0.66 | 0.666 | 1.08 | 0.797 | 0.83 | 0.917 | 1.03 |
| NCI-H3122 | – | 0.222 | 0.213 | 0.194 | 0.2 | 0.682 | 1.04 | 1.03 | 1.12 | 1.06 | – | 1.08 | 0.978 | 1.11 | 0.983 | 1.02 | 0.991 | 1.05 | 1.05 | 1.07 |
| HCC-827 | 0.267 | 0.267 | 0.266 | 0.262 | 0.286 | 0.19 | 0.163 | 0.186 | 0.198 | 0.161 | 0.816 | 0.927 | 0.862 | 0.84 | 0.848 | 0.927 | 0.907 | 0.963 | 0.977 | 0.999 |
| LXF-289 | 0.907 | 0.974 | 0.984 | 0.993 | 0.92 | 1.16 | 1.22 | 1.09 | 1.19 | 1.2 | 0.744 | 0.837 | 0.782 | 0.801 | 0.819 | 0.991 | 0.952 | 0.972 | 0.962 | 0.968 |
| NCI-H596 | 0.477 | 0.53 | 0.55 | 0.478 | 0.474 | 1.09 | 1.13 | 1.2 | 0.941 | 1.12 | 0.739 | 0.665 | 0.707 | 0.757 | 0.802 | 1.15 | 1.1 | 1.24 | 1.16 | 1.03 |
| NCI-H1993 | 0.566 | 0.59 | 0.623 | 0.584 | 0.62 | 0.778 | 1.01 | 1.06 | 0.9 | 0.658 | 0.592 | 0.534 | 0.557 | 0.548 | 0.506 | 0.725 | 0.745 | 0.773 | 0.79 | 0.826 |
| NCI-H1437 | 0.305 | 0.323 | 0.322 | 0.362 | 0.331 | 1.09 | 1.12 | 1.13 | 1.15 | 1.09 | 0.884 | 0.845 | 0.995 | 0.961 | 0.915 | 1.02 | 1.07 | 1 | 0.898 | 0.797 |
| NCI-H1792 | 0.918 | 0.988 | 1.06 | 0.68 | 0.85 | 0.577 | 0.888 | 0.681 | 0.442 | 0.669 | 0.85 | 0.884 | 0.881 | 1 | 0.768 | 0.575 | 0.629 | 0.527 | 0.557 | 0.504 |
| LK-2 | 0.246 | 0.323 | 0.294 | 0.256 | 0.294 | 0.281 | 0.42 | 0.289 | 0.508 | 0.48 | 0.171 | 0.229 | 0.206 | 0.186 | 0.19 | 0.543 | 0.471 | – | 0.439 | 0.415 |
